Measurements taken from ChEMBL document CHEMBL4043296 (J Med Chem, 2018).
One block for each compound: values may come before it.

Key:
D(2) dopamine receptor = D(2) dopamine receptor (Homo sapiens, UniProt P14416); assay: Displacement of [3H]N-methylspiperone from human dopamine D2 receptor expressed in HEK293 cell membranes after 1 hr by scintillation counting method
D(3) dopamine receptor = D(3) dopamine receptor (Homo sapiens, UniProt P35462); assay: Displacement of [3H]N-methylspiperone from human dopamine D3 receptor expressed in HEK293 cell membranes after 1 hr by scintillation counting method
Chain of D(3) dopamine receptor (P35462 whole entry): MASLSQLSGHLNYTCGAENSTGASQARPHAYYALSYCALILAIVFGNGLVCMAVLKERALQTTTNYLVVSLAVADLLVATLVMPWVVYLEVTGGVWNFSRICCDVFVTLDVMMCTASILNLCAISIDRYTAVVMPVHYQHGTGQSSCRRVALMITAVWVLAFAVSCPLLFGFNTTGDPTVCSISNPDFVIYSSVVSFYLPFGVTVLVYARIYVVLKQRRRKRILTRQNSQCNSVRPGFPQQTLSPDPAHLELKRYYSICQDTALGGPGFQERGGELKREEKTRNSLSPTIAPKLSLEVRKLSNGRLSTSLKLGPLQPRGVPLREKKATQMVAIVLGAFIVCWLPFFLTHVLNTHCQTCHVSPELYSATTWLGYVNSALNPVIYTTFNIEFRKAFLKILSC

D(4) dopamine receptor [1] = target: T1, D(4) dopamine receptor (Homo sapiens, UniProt P21917); assay: Displacement of [3H]N-methylspiperone from human dopamine D4 receptor expressed in HEK293 cell membranes after 1 hr by scintillation counting method
T1 sequence (P21917 whole entry): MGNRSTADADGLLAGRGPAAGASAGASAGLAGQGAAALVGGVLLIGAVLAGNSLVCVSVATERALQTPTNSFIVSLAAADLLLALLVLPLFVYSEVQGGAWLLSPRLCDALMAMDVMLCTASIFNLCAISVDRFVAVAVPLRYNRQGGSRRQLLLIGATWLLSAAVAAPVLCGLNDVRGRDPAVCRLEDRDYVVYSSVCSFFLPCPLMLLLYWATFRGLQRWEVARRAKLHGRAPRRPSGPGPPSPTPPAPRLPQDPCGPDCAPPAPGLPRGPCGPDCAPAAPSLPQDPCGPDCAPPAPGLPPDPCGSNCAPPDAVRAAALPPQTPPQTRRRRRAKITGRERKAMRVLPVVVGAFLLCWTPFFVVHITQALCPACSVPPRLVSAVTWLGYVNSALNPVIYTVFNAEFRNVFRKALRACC

Homo sapiens = species: Homo sapiens; assay: Selectivity ratio of Ki for human dopamine D2 receptor to Ki for human dopamine D4 receptor
[2] = target: T2, Muscarinic acetylcholine receptor M1 (Homo sapiens, UniProt P11229); assay: Displacement of [3H]NMS from human muscarinic M1 receptor expressed in CHO cell membranes after 2 hrs by liquid scintillation counting method
T2 sequence (P11229 whole entry): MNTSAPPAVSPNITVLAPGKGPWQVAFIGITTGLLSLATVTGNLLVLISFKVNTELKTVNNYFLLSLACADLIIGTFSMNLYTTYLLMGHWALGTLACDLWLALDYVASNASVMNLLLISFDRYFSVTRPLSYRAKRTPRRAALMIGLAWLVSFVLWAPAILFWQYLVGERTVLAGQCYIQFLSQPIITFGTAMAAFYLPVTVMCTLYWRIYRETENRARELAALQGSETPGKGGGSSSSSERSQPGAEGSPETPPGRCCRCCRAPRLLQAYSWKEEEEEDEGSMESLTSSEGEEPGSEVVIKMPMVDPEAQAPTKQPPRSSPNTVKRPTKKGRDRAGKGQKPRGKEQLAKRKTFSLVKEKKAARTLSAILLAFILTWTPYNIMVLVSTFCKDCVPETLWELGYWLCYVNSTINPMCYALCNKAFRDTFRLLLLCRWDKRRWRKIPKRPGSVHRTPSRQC

[3] = target: T3, Muscarinic acetylcholine receptor M2 (Homo sapiens, UniProt P08172); assay: Displacement of [3H]NMS from human muscarinic M2 receptor expressed in CHO cell membranes after 2 hrs by liquid scintillation counting method
T3 sequence (P08172 whole entry): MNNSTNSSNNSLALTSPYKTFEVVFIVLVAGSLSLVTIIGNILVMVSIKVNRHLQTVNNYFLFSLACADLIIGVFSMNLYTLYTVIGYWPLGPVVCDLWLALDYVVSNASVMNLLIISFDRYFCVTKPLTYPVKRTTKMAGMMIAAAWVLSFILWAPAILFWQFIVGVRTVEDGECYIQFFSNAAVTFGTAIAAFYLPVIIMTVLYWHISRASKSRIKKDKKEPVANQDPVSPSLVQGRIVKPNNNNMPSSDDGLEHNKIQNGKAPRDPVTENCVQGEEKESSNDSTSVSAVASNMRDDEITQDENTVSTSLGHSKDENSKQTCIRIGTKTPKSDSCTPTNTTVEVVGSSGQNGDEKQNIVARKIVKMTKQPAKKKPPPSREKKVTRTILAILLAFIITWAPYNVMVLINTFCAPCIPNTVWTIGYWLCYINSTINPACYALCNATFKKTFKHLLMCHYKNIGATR

[4] = target: Muscarinic acetylcholine receptor M3 (Homo sapiens, UniProt P20309); assay: Displacement of [3H]NMS from human muscarinic M3 receptor expressed in CHO cell membranes after 2 hrs by liquid scintillation counting method
Chain of Muscarinic acetylcholine receptor M3 (P20309 whole entry): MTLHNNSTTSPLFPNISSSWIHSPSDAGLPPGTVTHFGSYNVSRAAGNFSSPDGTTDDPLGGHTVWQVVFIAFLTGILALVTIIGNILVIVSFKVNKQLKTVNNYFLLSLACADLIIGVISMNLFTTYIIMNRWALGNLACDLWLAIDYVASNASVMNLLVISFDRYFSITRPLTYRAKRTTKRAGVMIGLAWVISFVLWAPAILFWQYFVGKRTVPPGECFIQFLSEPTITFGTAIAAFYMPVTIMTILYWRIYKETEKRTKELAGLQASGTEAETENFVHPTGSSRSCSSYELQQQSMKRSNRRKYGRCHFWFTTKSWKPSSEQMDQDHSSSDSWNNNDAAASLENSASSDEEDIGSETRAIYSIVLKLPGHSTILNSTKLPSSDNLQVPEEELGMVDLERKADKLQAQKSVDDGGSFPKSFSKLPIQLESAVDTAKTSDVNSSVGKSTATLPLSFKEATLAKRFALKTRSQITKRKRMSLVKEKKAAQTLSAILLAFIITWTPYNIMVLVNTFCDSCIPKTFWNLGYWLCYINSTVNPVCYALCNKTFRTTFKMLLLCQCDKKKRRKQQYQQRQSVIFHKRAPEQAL

[5] = target: T4, Muscarinic acetylcholine receptor M4 (Homo sapiens, UniProt P08173); assay: Displacement of [3H]NMS from human muscarinic M4 receptor expressed in CHO cell membranes after 2 hrs by liquid scintillation counting method
T4 sequence (P08173 whole entry): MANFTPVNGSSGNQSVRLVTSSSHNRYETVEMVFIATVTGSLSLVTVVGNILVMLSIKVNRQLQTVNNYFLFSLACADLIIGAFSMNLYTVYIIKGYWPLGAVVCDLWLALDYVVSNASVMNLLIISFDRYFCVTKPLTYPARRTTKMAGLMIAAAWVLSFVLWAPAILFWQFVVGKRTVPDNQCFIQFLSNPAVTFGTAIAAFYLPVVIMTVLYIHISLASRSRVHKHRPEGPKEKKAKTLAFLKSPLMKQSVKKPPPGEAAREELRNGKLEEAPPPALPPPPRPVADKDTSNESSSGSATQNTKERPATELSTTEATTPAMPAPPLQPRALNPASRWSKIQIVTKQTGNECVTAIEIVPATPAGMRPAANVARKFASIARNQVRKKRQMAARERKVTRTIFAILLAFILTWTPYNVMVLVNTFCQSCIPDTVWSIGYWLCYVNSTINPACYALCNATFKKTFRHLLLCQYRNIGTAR

[6] = target: T5, Muscarinic acetylcholine receptor M5 (Homo sapiens, UniProt P08912); assay: Displacement of [3H]NMS from human muscarinic M5 receptor expressed in CHO cell membranes after 2 hrs by liquid scintillation counting method
T5 sequence (P08912 whole entry): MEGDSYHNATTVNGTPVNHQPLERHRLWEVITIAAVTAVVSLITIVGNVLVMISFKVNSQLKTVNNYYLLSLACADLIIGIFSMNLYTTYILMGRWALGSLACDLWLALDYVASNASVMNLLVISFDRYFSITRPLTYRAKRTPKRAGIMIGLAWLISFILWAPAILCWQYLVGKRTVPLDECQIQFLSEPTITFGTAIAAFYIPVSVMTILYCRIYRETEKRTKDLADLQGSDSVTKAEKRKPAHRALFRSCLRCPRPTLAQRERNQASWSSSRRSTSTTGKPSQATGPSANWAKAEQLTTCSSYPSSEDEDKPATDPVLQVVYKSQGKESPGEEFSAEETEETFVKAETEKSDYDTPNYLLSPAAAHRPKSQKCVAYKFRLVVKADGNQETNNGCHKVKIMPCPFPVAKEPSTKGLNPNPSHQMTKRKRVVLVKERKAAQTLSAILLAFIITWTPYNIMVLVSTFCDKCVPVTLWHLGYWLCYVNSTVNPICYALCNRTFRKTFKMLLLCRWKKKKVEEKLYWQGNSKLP

D(4) dopamine receptor [7] = target: T1, D(4) dopamine receptor; assay: Antagonist activity at human SP/Myc epitope-tagged dopamine D4 receptor expressed in HEK293T cells assessed as inhibition of dopamine-induced RLuc8-fused Galphai1 activation preincubated for 15 mins followed by dopamine induction measured after 2 mins by BRET assay; type: cell-based, HEK-293T
D(4) dopamine receptor [8] = target: T1, D(4) dopamine receptor; assay: Antagonist activity at human SP/Myc epitope-tagged dopamine D4 receptor expressed in HEK293T cells assessed as inhibition of dopamine-induced mVenus-fused beta-arrestin2 recruitment preincubated for 15 mins followed by dopamine induction measured after 2 mins by BRET assay; type: cell-based, HEK-293T

Chain of D(2) dopamine receptor (P14416 whole entry): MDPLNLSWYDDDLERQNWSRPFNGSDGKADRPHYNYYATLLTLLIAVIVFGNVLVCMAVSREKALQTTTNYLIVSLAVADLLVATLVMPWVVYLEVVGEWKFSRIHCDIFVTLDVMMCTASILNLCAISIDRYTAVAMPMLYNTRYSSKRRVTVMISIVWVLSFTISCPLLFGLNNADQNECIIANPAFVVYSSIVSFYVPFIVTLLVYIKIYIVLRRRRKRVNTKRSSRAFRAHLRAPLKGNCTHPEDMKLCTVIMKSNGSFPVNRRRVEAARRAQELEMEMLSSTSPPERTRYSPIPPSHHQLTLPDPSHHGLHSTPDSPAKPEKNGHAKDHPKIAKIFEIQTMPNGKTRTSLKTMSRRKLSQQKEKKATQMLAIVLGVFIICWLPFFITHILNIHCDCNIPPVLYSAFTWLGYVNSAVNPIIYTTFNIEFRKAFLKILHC

SMILES: CCCCCC1CCN(CCCN2C(=O)CCc3ccccc32)CC1
Ki (D(2) dopamine receptor): 525 nM | Ki (D(3) dopamine receptor): 282 nM | Ki (D(4) dopamine receptor [1]): 1.38 nM | Ratio Ki (Homo sapiens): 380 | Ki [2]: 490 nM | Ki [3]: 562 nM | Ki [4]: 1350 nM | Ki [5]: 575 nM | Ki [6]: 3550 nM

SMILES: O=C1CCc2ccccc2N1CCCN1CCN(CCc2ccccc2)CC1
Ki (D(2) dopamine receptor): 5750 nM | Ki (D(3) dopamine receptor): 3980 nM | Ki (D(4) dopamine receptor [1]): 28.8 nM | Ratio Ki (Homo sapiens): 200 | Ki [2]: 2290 nM | Ki [3]: 1780 nM | Ki [4]: 6610 nM | Ki [5]: 5130 nM | Ki [6]: 7940 nM

SMILES: O=C1CCc2ccccc2N1CCCN1CCC(CCCCCO)CC1
Ki (D(2) dopamine receptor): 1170 nM | Ki (D(3) dopamine receptor): 676 nM | Ki (D(4) dopamine receptor [1]): 4.37 nM | Ratio Ki (Homo sapiens): 269 | IC50 (D(4) dopamine receptor [7]): 126 nM | IC50 (D(4) dopamine receptor [8]): 151 nM

SMILES: CC(C)Oc1cccnc1N(C)C1CCN(Cc2ccc(I)cc2)CC1
Ratio Ki (Homo sapiens): 1720

SMILES: O=C1CCc2ccccc2N1CCCN1CCC(CCc2ccccc2)CC1
Ki (D(2) dopamine receptor): 288 nM | Ki (D(3) dopamine receptor): 407 nM | Ki (D(4) dopamine receptor [1]): 2.14 nM | Ratio Ki (Homo sapiens): 135 | Ki [2]: 263 nM | Ki [3]: 204 nM | Ki [4]: 501 nM | Ki [5]: 200 nM | Ki [6]: 759 nM

SMILES: O=C1CCc2ccccc2N1CCCN1CCC(CCCCCCCO)CC1
Ki (D(2) dopamine receptor): 933 nM | Ki (D(3) dopamine receptor): 955 nM | Ki (D(4) dopamine receptor [1]): 100 nM | Ratio Ki (Homo sapiens): 9

Continued, values first:

Ki (D(2) dopamine receptor): 912 nM | Ki (D(3) dopamine receptor): 1550 nM | Ki (D(4) dopamine receptor [1]): 5.25 nM | Ratio Ki (Homo sapiens): 174 | Ki [2]: 2510 nM | Ki [3]: 1910 nM | Ki [4]: 2340 nM | Ki [5]: 1660 nM | Ki [6]: 1950 nM
SMILES: CCCC1CCN(CCCN2C(=O)CCc3ccccc32)CC1

Ki (D(2) dopamine receptor): 4470 nM | Ki (D(3) dopamine receptor): 3720 nM | Ki (D(4) dopamine receptor [1]): 257 nM | Ratio Ki (Homo sapiens): 17 | Ki [2]: 12000 nM | Ki [3]: 11500 nM | Ki [4]: 14100 nM | Ki [5]: 9330 nM | Ki [6]: 24000 nM
SMILES: CC1CCN(CCCN2C(=O)CCc3ccccc32)CC1

Ki (D(4) dopamine receptor [1]): 95.5 nM | Ratio Ki (Homo sapiens): > 105
SMILES: COc1cccc(CCC2=NCCN2CCc2ccccc2)c1

Ki (D(2) dopamine receptor): 457 nM | Ki (D(3) dopamine receptor): 708 nM | Ki (D(4) dopamine receptor [1]): 1.95 nM | Ratio Ki (Homo sapiens): 234 | Ki [2]: 2880 nM | Ki [3]: 2400 nM | Ki [4]: 4680 nM | Ki [5]: 1290 nM | Ki [6]: 2040 nM
SMILES: O=C1CCc2ccccc2N1CCCN1CCC(c2ccccc2)CC1

Ratio Ki (Homo sapiens): 48
SMILES: COc1ccc(Cl)cc1OC[C@@H]1CN(Cc2ccc(Cl)cc2)CCO1

Ki (D(2) dopamine receptor): 661 nM | Ki (D(3) dopamine receptor): 589 nM | Ki (D(4) dopamine receptor [1]): 74.1 nM | Ratio Ki (Homo sapiens): 9
SMILES: O=C1CCc2ccccc2N1CCCN1CCC(CCCO)CC1

Ki (D(2) dopamine receptor): 5130 nM | Ki (D(3) dopamine receptor): 3890 nM | Ki (D(4) dopamine receptor [1]): 316 nM | Ratio Ki (Homo sapiens): 16 | Ki [2]: 2690 nM | Ki [3]: 4170 nM | Ki [4]: 7080 nM | Ki [5]: 3160 nM | Ki [6]: 9120 nM
SMILES: CCCCN1CCN(CCCN2C(=O)CCc3ccccc32)CC1
